Measurements taken from paper PMC8847371 (Nature Communications, 2022).
Several values for one entry are separate records, joined by “and”; a condition that tells them apart may be missing. Equal values may be shown once.

System: SARS-CoV-2 B.1.1.7 (alpha variant)
Assay type: cell-based
Details: 3 µM

## N#C[C@@]1(c2ccc3c(N)ncnn23)O[C@H](CO)[C@@H](O)[C@H]1O [GS-441524]
  Log vRNA: 4 and 4.2 and 4.3
